This is an account of results in publication PMC3335822 (PLoS ONE, 2012).

For orientation: IC50 means the concentration at which inhibition is half-maximal. A high value points to weaker potency in that assay.

One series has as its target T1, human EYA2(ED) (Homo sapiens, UniProt O00167).
T1 sequence (O00167 267-538 limits assumed): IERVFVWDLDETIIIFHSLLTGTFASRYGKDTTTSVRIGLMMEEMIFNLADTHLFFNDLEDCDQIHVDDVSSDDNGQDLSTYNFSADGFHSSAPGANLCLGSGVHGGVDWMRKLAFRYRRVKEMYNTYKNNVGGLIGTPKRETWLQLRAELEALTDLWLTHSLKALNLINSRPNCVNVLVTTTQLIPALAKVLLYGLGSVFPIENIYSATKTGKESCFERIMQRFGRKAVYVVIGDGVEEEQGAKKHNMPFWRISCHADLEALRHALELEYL
The series is described as follows: pNPP hydrolysis by the catalytic domain of EYA2. In kind it is biochemical. The settings on record: substrate pNPP. On the procedure:
The catalytic domain of human Eyes Absent 2 was similarly sub-cloned as a poly-histidine fusion construct in the vector pDEST-527. Fusion protein was purified by Ni-NTA chromatography and followed by size-exclusion chromatography over a Superdex-75 column. The relative purity of protein samples was determined using SDS-PAGE. PTP1B was purified as described previously.
The NCI Diversity Set II was obtained from the NCI in 96-well trays from the NIH Molecular Libraries Program and stored as 10 mM stocks in DMSO. An initial manual screen was conducted using the previously described p-nitrophenylphosphate assay and mouse Eya3(223–510) in a reaction mixture containing 20 mM MES pH 6, 2 mM MgCl2, 125 μM inhibitor, 3.4 mM para-nitrophenol phosphate (pNPP) and 0.01 μg/µL enzyme. The amount of 4-nitrophenol (pNP) produced was monitored at […] on a BioTek EL808 plate reader. A similar protocol was used to screen for inhibitor activity using hEYA3 and hEYA2(ED).
Compounds were dissolved in DMSO and diluted as needed. […] Reactions were incubated at 30°C for 30 minutes and quenched with 100 mM EDTA pH 10. IC50 values were then calculated directly from regression curves using PRISM. All reported values are the mean of two independent experiments.

The target in another series is T2, EYA3-SIX2 interaction (Homo sapiens, UniProt Q99504).
T2 construct: residues 127–573 of NM_001990, isoform 1; His-GST (poly-histidine, glutathione-S-transferase) with TVMV protease site (cleaved yes); made in house
T2 sequence (Q99504 127-573): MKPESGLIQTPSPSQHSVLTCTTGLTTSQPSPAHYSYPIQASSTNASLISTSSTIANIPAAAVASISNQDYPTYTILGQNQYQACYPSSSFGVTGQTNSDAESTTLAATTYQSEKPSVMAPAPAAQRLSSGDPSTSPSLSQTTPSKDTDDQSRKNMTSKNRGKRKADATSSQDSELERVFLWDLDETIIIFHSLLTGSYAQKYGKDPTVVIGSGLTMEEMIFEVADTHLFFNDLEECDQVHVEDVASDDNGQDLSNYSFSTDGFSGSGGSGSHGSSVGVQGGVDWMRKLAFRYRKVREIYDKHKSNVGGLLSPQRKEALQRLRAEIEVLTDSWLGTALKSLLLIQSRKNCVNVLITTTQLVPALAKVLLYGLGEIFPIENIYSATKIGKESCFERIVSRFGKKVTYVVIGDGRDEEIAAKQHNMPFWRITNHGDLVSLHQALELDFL
T2 sequence (Q9NPC8 1-291 partner): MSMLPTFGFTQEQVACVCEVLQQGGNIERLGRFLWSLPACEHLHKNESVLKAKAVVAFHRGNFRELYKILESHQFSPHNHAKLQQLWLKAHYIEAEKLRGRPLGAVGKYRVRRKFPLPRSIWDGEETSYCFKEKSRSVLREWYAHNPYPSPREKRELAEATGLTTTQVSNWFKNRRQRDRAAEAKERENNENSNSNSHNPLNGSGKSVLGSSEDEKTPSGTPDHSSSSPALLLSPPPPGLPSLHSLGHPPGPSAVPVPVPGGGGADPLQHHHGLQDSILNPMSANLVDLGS
The series is described as follows: His-SIX2 Ni-NTA pull-down of EYA3. In kind it is binding. The following applies: 50 μM, 15 minutes at room temperature. From the text:
The catalytic domain of the EYAs also mediates its interaction with the SIX proteins. This complex then translocates to the nucleus where the SIX-EYA complex can activate transcription.

The test system of a further series is HUVECs. The series is described as follows: HUVEC tubulogenesis assay on Matrigel. Format: cell-based, human. The following applies: for effect on tubulogenesis, in words: up to 7.5 μM. On the procedure: Tubulogenesis assays were performed in 15-well micro-slide (ibidi LLC, Verona WI), using growth factor-reduced matrigel (BD Bioscience, Billerica, MA). The matrix was prepared by loading 10 μl of matrigel in each micro-slide well and allowing it to solidify for 30 minutes at 37°C. HUVECs were trypsinized and resuspended at 100,000 cell/ml in EBM +2.5% FBS. 50 μl (5,000 cell) were loaded on top of the solidified matrigel and the preparation was incubated for 20 hours at 37°C in a humidified incubator in a 5% CO2 atmosphere. Bright field images were taken using an inverted microscope at 2.5× magnification, which allowed imaging of the whole well in two pictures that were later merged in Photoshop. Tubular structures were traced and counted using NeuroJ (NIH, USA). In experiments with inhibitor, the inhibitor was added to the cell suspension before loading. Each sample was loaded in triplicate, and each treatment was repeated for reproducibility.

Another series concerns mouse aortic rings. Briefly: Mouse aortic ring assay (ex vivo sprouting angiogenesis, VEGF-stimulated). The following applies: 5 μM, 10 days. On the procedure:
The preparation of rat collagen and the aortic ring assay were carried out as previously described, [50]. Mice were 4 to 6 week old female C57BL/6, and aortic ring explants were cultured at 37°C in a humidified incubator under a 5% CO2 atmosphere.
Each inhibitor was serially diluted (between 0.25 mM and 7.5 mM) to stocks of 1000× the working concentrations in sterile 100% DMSO in order to achieve an equal final concentration of DMSO (0.1% v/v) in all culture conditions. For the experiments, the compounds were diluted in EBM containing 2.5% FBS, penicillin/streptomycin and 20 ng/ml VEGF165 (R&D Systems, Minneapolis, MN). Each compound was applied from the first day of culture over a 10-day period with medium change every two days. In all experiments, the vehicle (DMSO, 0.1%) was used as control. The sprouting density was derived from counting the number of branches per ring, and the extent of angiogenic sprouting was estimated by measuring the total surface area covered by the vessels.

The subject of another series is zebrafish embryos. The series is described as follows: Analysis of zebrafish vasculature, Tg(kdrl:EGFP) embryos. In kind it is in vivo. The settings on record: exposure from about 5 hpf, analysis at 28–30 hpf. On the procedure:
Tg(kdrl:EGFP)^s843 zebrafish line was used for vascular analysis. Embryos were maintained in fish water until the 50% epiboly stage (5.25 hpf) and were transferred into wells of 24-well plate containing the inhibitors in fish water. All incubation was performed at 28.5°C. The analysis for vascular defects was performed at the 28–30 hpf stages, and embryos were imaged using a fluorescence microscope.

For series [1], the system named is urate transporter SLC22A12 (URAT1). Also on record: method as in PMID 21272127. The following applies: cited from earlier work.
The next series deals with CYP2C9. On the set-up: method as in PMID 20214587. The following applies: cited from earlier work.

For `CCc1oc2ccccc2c1C(=O)c1cc(Br)c(O)c(Br)c1` [Compound 1, Benzbromarone], at human EYA2(ED), inhibition was half-maximal at 10.3 µM (IC50). Also, the “effect on the interaction between EYA3 and SIX2” value on EYA3-SIX2 interaction was “does not affect the interaction between EYA3 and SIX2”. Moreover, the “effect on tubulogenesis, in words” value in the series on HUVECs is listed as “effective only at the highest concentrations tested (7.5 μM)”. The “effect on sprouting of aortic rings” value in the series with mouse aortic rings is “shorter sprouts and significantly lower microvascular density”. Also, the “effect on the developing vasculature” value with zebrafish embryos is on record as “significant reduction of intersegmental vessels even at the lowest dose tested (0.25 μM)”. Also, the “inhibition of URAT1” value in series [1] is on record as “inhibition of the urate transporter SLC22A12 (URAT1)”. Further, the “inhibition of CYP2C9” value with CYP2C9 is “inhibit CYP2C9”.

For the molecule `CCc1oc2ccccc2c1C(=O)c1ccc(O)cc1` [Compound 1a, Benzarone], the “reduction in tube formation” value in the series on HUVECs (2.5 μM) was about 50%. Also, in the series with HUVECs, the “effect on tubulogenesis, in words” value was “potently inhibited tubulogenesis in a dose-dependent fashion”. Also, the “effect on sprouting of aortic rings” value in the series with mouse aortic rings is “shorter sprouts and significantly lower microvascular density”. Further, the “effect on the developing vasculature” value with zebrafish embryos is “reduced the number of intersegmental vessels, but were less potent”. The “inhibition of URAT1” value in series [1] is on record as “inhibition of the urate transporter SLC22A12 (URAT1)”. The “inhibition of CYP2C9” value with CYP2C9 was “inhibit CYP2C9”.
